Data: US11014956B2, “Compositions and methods for altering second messenger signaling” (Memorial Sloan Kettering Cancer Center, priority 2013, dated 2021)
“Also recorded” adds a separate entry of the source. Blank lines part the entries; values can stand above or below the molecule they belong to.

Tests used:
[1] = target: T1, cGAS (Mus musculus, UniProt Q8C6L5); experiment: cGAS activity assay, c[G(2′,5′)pA(3′,5′)p] formation by thin-layer chromatography; assay type: biochemical; conditions: for cyclic dinucleotide formation with the nucleotide as cGAS substrate in place of GTP or ATP (in words): cGAS plus dsDNA
T1 construct: Purified recombinant full length (fl, amino acids 1-507) and truncated (tr, amino acids 147-507) murine cGAS; His6-SUMO (N, cleaved yes); made in house; host or cells: E. coli BL21 (DE3) RIL
T1 sequence (Q8C6L5 whole entry, the tested form may be a part): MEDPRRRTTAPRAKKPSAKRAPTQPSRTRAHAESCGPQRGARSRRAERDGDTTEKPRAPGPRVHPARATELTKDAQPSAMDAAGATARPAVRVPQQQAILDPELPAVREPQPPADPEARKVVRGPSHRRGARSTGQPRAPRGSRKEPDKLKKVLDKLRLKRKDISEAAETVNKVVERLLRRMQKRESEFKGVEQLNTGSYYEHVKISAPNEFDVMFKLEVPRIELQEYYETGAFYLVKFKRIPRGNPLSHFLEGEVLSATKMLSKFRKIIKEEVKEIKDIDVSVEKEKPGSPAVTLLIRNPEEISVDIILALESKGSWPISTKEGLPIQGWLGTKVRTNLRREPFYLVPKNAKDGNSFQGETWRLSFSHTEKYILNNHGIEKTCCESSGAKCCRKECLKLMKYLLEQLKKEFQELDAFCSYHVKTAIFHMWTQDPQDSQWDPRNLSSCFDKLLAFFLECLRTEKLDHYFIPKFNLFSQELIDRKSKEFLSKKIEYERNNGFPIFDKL
From the text: (§1) To validate the structural results, we established an activity assay using thin-layer chromatography (FIG. 11) and monitored cyclic dinucleotide c[G(2′,5′)pA(3′,5′)p] formation from ATP and GTP using purified recombinant full-length and truncated cGAS proteins. cGAS required the presence of dsDNA and Mg^2+ or Mn^2+ for activity (FIG. 5A-B). […] The trace amount of c[G(2′,5′)pA(3′,5′)p]detected for the specific ssDNA used in this experiment was attributable to a stretch of sequence complementarity, and the substitution of G by 8-oxoguanine (8-oxoG) was sufficient to destabilize its predicted interaction and eliminate the residual cGAS activity.
(§2) Purified recombinant full length (fl, amino acids 1-507) and truncated (tr, amino acids 147-507) murine cGAS, including truncated mutant versions 1-6, were incubated in 20 μL reactions containing: 1 μM cGAS, 3.3 μM dsDNA, 5 mM MgCl2, 150 mM NaCl, 20 mM Tris-HCl, pH 7.5 at 25° C., 1 mM DTT, 10% glycerol, 1 mM each of nucleotides (typically ATP and GTP), and α^32P or γ^32P radiolabelled NTPs or dNTPs at 37° C. for 40 min. Reactions were stopped by addition of 20 μL of 50 mM EDTA. 2 μL of reaction solution was spotted onto high-performance TLC plates (HPTLC silica gel, 60 Å pores, F254, 10×10 cm, cat #1.05628.0001, EMD Millipore) and products were separated with Solvent 1 (NH4HCO3:C2H5OH:H2O [0.2 M:30%:70%], w:v:v) or 2 (NH4HCO3:C2H5OH:H2O [0.025 M:30%:70%], w:v:v) at 25° C. for 1 h. Reaction products were visualized by UV (254 nm) and phosphorimaging (Typhoon FLA 9500, GE Healthcare). Images were processed using Adobe Photoshop and Illustrator CS5. The TLC conditions used were largely based on a protocol established to separate 3′,5′ cAMP (Higashida et al, 2012).
(§3) The yield of c[G(2′,5′)pA(3′,5′)p] generated was calculated by densitometry analysis of TLC experiments, using FIJI (ImageJ 1.47i) or spectrophotemetrically (absorbance at 260 nm, E260=25.4×10^3) after purification from HPLC. For densitometry analyses, the fraction of α^32P-labelled c[G(2′,5′)pA(3′,5′)p] over total radioactivity per lane (c[G(2′,5′)pA(3′,5′)p]plus remaining α^32P-labelled ATP or GTP) was calculated.

[2] = tested on: IFN-β luciferase reporter; experiment: IFN-β luciferase reporter assay in HEK 293 cells co-expressing cGAS and STING; assay type: cell-based; conditions: for cGAS function in cells (in words): alanine mutants of full-length cGAS expressed in HEK 293 cells
From the text: To assess the impact on cGAS function in cells, we generated additional alanine mutants of cGAS for expression in mammalian cells. The full-length cGAS mutants together with STING and an IFN-β luciferase reporter were transiently expressed in HEK 293 cells. […] (Arg364, Tyr 421; FIG. 2F, 4B), while single mutants of these residues only slightly impaired cGAS function (FIG. 7C). […] Similarly, conversion of the highly mobile Gly198 to sterically restricted proline abrogated cGAS activity (FIG. 13E).
3×10^4 HEK293 cells per 96-well were reverse-transfected in triplicates with a mixture of pGL3-IFNbeta-Gluc (50 ng), pLenti-EF1-Fluc (25 ng), pLenti-EF1-mSTING (25 ng) and cGAS-expression plasmid (25 ng, pMAX-cGAS WT or mutants) or Control plasmid pMAX-GFP (Amaxa) using Trans-IT LT1 (MirusBio, Madison, Wis.). After 36 h cells were lysed in passive lysis buffer. Firefly and gaussia Luciferase activities were determined on an EnVision reader (Perkin Elmer, Waltham, Mass.) using the respective substrates D-luciferin and coelenterazine (PJK GmbH, Kleinblittersdorf, Germany). IFNbeta-Gluc values were normalized to constitutive firefly luciferase values and fold induction was calculated in relation to control-plasmid pMAX-GFP.

[3] = tested on: cGAS; experiment: cGAS activity assay, c[G(2′,5′)pA(3′,5′)p] formation by thin-layer chromatography; assay type: biochemical, mouse; conditions: for c[G(2′,5′)pA(3′,5′)p] formation by cGAS protein in vitro (in words): purified recombinant cGAS incubated with DNA
From the text: as §1, §2, §3

Molecule: 16 bp dsDNA: 16 bp dsDNA used for crystallography (SEQ ID NO: 47 and 48) (chain 1 AAATTGCCGAAGACGAA; chain 2 TTTCGTCTTCGGCAATT; DNA, backbone not given here) [reference compound]
stimulation of cGAS cyclic dinucleotide formation by the nucleic acid (in words) ([1]; ATP and GTP as substrates): elicited some activity

Molecule: Nc1ncnc2c1ncn2[C@H]1C[C@H](O)[C@@H](COP(=O)(O)OP(=O)(O)OP(=O)(O)O)O1 [2′-dATP, reference compound]
cyclic dinucleotide formation with the nucleotide as cGAS substrate in place of GTP or ATP (in words) [1]: forms; also recorded: markedly reduced formation of cyclic GA-dinucleotides

Molecule: Nc1nc2c(ncn2[C@H]2C[C@H](O)[C@@H](COP(=O)(O)OP(=O)(O)OP(=O)(O)O)O2)c(=O)[nH]1 [2′-dGTP, reference compound]
cyclic dinucleotide formation with the nucleotide as cGAS substrate in place of GTP or ATP (in words) [1]: not at all; also recorded: unable to form a cyclic dinucleotide

Molecule: Nc1ncnc2c1ncn2[C@@H]1O[C@H](COP(=O)(O)OP(=O)(O)OP(=O)(O)O)C[C@H]1O [3′-dATP, reference compound]
cyclic dinucleotide formation with the nucleotide as cGAS substrate in place of GTP or ATP (in words) [1]: markedly reduced formation of cyclic GA-dinucleotides

cyclic dinucleotide formation with the nucleotide as cGAS substrate in place of GTP or ATP (in words) [1]: reduced levels of c[G(2′,5′)pA(3′,5′)p]
Molecule: Nc1ncnc2c1ncn2[C@@H]1O[C@H](COP(=O)(O)OP(=O)(O)O)[C@@H](O)[C@H]1O [ADP, reference compound]

cyclic dinucleotide formation with the nucleotide as cGAS substrate in place of GTP or ATP (in words) [1]: no product or intermediate formation
Molecule: Nc1ncnc2c1ncn2[C@@H]1O[C@H](COP(=O)(O)O)[C@@H](O)[C@H]1O [AMP, reference compound]

Molecule: Arg161: cGAS single alanine mutant of DNA binding residue Arg161
cGAS function in cells (in words) [2]: not sufficient to impair cGAS activity

Molecule: Asp213: cGAS single mutant, catalytic residue Asp213 replaced by Ala
cGAS function in cells (in words) [2]: non-functional; also recorded: functionally dead

Molecule: Asp307: cGAS single mutant, catalytic residue Asp307 replaced by Ala
cGAS function in cells (in words) [2]: non-functional; also recorded: functionally dead

Molecule: G198A: cGAS single mutant G198A
cGAS function in cells (in words) [2]: did not severely impair cGAS function

Molecule: Glu211: cGAS single mutant, catalytic residue Glu211 replaced by Ala
c[G(2′,5′)pA(3′,5′)p] formation by cGAS protein in vitro (in words) [3]: functionally dead
cGAS function in cells (in words) [2]: non-functional; also recorded: functionally dead

Molecule: S199A: cGAS single mutant S199A
c[G(2′,5′)pA(3′,5′)p] formation by cGAS protein in vitro (in words) [3]: retained substantial activity
cGAS function in cells (in words) [2]: did not severely impair cGAS function

Molecule: Y421A, R364A: cGAS dual mutant of the base stacking residues Arg364 and Tyr421
cGAS function in cells (in words) [2]: loss in the majority of activity
cGAS function in cells (in words) ([2]; Tyr 421): abrogation of cGAS activity

Molecule: cGAS (tr): truncated murine cGAS, amino acids 147-507
c[G(2′,5′)pA(3′,5′)p] formation by cGAS protein in vitro (in words) [3]: exhibits activity, albeit less than cGAS (fl)

turnovers per enzyme molecule ([3]; multiple turnover conditions, 40 min): over 750
Molecule: cGAS: mouse cyclic GMP-AMP synthase, wild type, full length (amino acids 1-507), recombinant or expressed in cells
estimated observed rate constant ([3]; multiple turnover conditions): 0.19 min⁻¹
original ATP and GTP converted to c[G(2′,5′)pA(3′,5′)p] ([3]; multiple turnover conditions, within 40 min, n=5): Over 78%
enhanced luciferase activity compared to a control plasmid ([2]; HEK 293 cells, STING and IFN-β luciferase reporter transiently expressed): ~15 fold

B1: S165A, N172A, K372A triple mutant: cGAS dsDNA-binding triple mutant (protein)
chain: PDKLKKVLDKLRLKRKDIAEAAETVAKVVERLLRRMQKRESEFKGVEQLNTGSYYEHVKISAPNEFDVMFKLEVPRIELQEYYETGAFYLVKFKRIPRGNPLSHFLEGEVLSATKMLSKFRKIIKEEVKEIKDIDVSVEKEKPGSPAVTLLIRNPEEISVDIILALESKGSWPISTKEGLPIQGWLGTKVRTNLRREPFYLVPKNAKDGNSFQGETWRLSFSHTEAYILNNHGIEKTCCESSGAKCCRKECLKLMKYLLEQLKKEFQELDAFCSYHVKTAIFHMWTQDPQDSQWDPRNLSSCFDKLLAFFLECLRTEKLDHYFIPKFNLFSQELIDRKSKEFLSKKIEYERNNGFPIFDKL
c[G(2′,5′)pA(3′,5′)p] formation by cGAS protein in vitro (in words) [3]: complete loss in activity
cGAS function in cells (in words) [2]: complete loss in activity and ability to stimulate interferon production

B2: R158A, R161A, K395A triple mutant: cGAS dsDNA-binding triple mutant (protein)
chain: PDKLKKVLDKLALKAKDISEAAETVNKVVERLLRRMQKRESEFKGVEQLNTGSYYEHVKISAPNEFDVMFKLEVPRIELQEYYETGAFYLVKFKRIPRGNPLSHFLEGEVLSATKMLSKFRKIIKEEVKEIKDIDVSVEKEKPGSPAVTLLIRNPEEISVDIILALESKGSWPISTKEGLPIQGWLGTKVRTNLRREPFYLVPKNAKDGNSFQGETWRLSFSHTEKYILNNHGIEKTCCESSGAKCCRAECLKLMKYLLEQLKKEFQELDAFCSYHVKTAIFHMWTQDPQDSQWDPRNLSSCFDKLLAFFLECLRTEKLDHYFIPKFNLFSQELIDRKSKEFLSKKIEYERNNGFPIFDKL
c[G(2′,5′)pA(3′,5′)p] formation by cGAS protein in vitro (in words) [3]: complete loss in activity
cGAS function in cells (in words) [2]: complete loss in activity and ability to stimulate interferon production

B3: N196A, Y200A, K372A triple mutant: cGAS dsDNA-binding triple mutant (protein)
chain: PDKLKKVLDKLRLKRKDISEAAETVNKVVERLLRRMQKRESEFKGVEQLATGSAYEHVKISAPNEFDVMFKLEVPRIELQEYYETGAFYLVKFKRIPRGNPLSHFLEGEVLSATKMLSKFRKIIKEEVKEIKDIDVSVEKEKPGSPAVTLLIRNPEEISVDIILALESKGSWPISTKEGLPIQGWLGTKVRTNLRREPFYLVPKNAKDGNSFQGETWRLSFSHTEAYILNNHGIEKTCCESSGAKCCRKECLKLMKYLLEQLKKEFQELDAFCSYHVKTAIFHMWTQDPQDSQWDPRNLSSCFDKLLAFFLECLRTEKLDHYFIPKFNLFSQELIDRKSKEFLSKKIEYERNNGFPIFDKL
c[G(2′,5′)pA(3′,5′)p] formation by cGAS protein in vitro (in words) [3]: complete loss in activity
cGAS function in cells (in words) [2]: complete loss in activity and ability to stimulate interferon production

B4: S165A, N172A, Y200A triple mutant: cGAS dsDNA-binding triple mutant (protein)
chain: PDKLKKVLDKLRLKRKDIAEAAETVAKVVERLLRRMQKRESEFKGVEQLNTGSAYEHVKISAPNEFDVMFKLEVPRIELQEYYETGAFYLVKFKRIPRGNPLSHFLEGEVLSATKMLSKFRKIIKEEVKEIKDIDVSVEKEKPGSPAVTLLIRNPEEISVDIILALESKGSWPISTKEGLPIQGWLGTKVRTNLRREPFYLVPKNAKDGNSFQGETWRLSFSHTEKYILNNHGIEKTCCESSGAKCCRKECLKLMKYLLEQLKKEFQELDAFCSYHVKTAIFHMWTQDPQDSQWDPRNLSSCFDKLLAFFLECLRTEKLDHYFIPKFNLFSQELIDRKSKEFLSKKIEYERNNGFPIFDKL
c[G(2′,5′)pA(3′,5′)p] formation by cGAS protein in vitro (in words) [3]: partial loss in activity
cGAS function in cells (in words) [2]: partial loss in activity
